≈ marks a conversion by molar mass, not a printed value.
Key:
Format in all cases: cell-based
C. albicans ATCC90028 = assay: Antifungal activity test, MIC by broth microdilution (CLSI M27-A3)
Procedure: (§1) The Minimum Inhibitory Concentration (MIC) values of the present compound against yeast and filamentous fungi were determined by broth microdilution assay according to the Clinical Laboratory Standards Institute (CLSI) guidelines outlined in documents M27-A3 and M38-A2. The medium used in the assay consisted of RPMI1640 (with glutamine, without bicarbonate) with 2% glucose and 0.165 mol/L morpholinepropanesulfonic acid (MOPS) with pH adjusted to 7.0 using 1 mol/L sodium hydroxide. The present compound was dissolved in dimethyl sulfoxide (DMSO). A series of two-fold dilutions were prepared in DMSO, and then 2 μL of the diluted compound was added to each well in 96-well sterile plates. Each inoculum was prepared by diluting a suspension of Candida spp. or a conidia suspension of Aspergillus spp. suspended in sterile saline solution, and then 200 μL was added to each well to a predetermined concentration using RPMI/MOPS (final concentration for each solution: approximately 1×10^3 cells/mL and approximately 1×10^4 CFU/mL). Plates of Candida spp. and Aspergillus spp. were incubated at 35° C. for 24-48 hours. The MIC was defined as the lowest concentration giving 100% inhibition compared to the growth control.

A. fumigatus ATCC204305 = assay: Antifungal activity test, MIC by broth microdilution (CLSI M38-A2)
Procedure: as §1

A. flavus ATCC204304 = assay: as above
Procedure: as §1

[1] = C. albicans ATCC90028, broth microdilution, 35° C., 24-48 hours, 100% inhibition
[2] = A. fumigatus ATCC204305, broth microdilution, 35° C., 24-48 hours, 100% inhibition
[3] = A. flavus ATCC204304, broth microdilution, 35° C., 24-48 hours, 100% inhibition
[4] = C. albicans ATCC90028, lowest concentration giving 100% inhibition, 35° C., 24-48 hours
[5] = A. fumigatus ATCC204305, lowest concentration giving 100% inhibition, 35° C., 24-48 hours
[6] = A. flavus ATCC204304, lowest concentration giving 100% inhibition, 35° C., 24-48 hours

Row | Compound | MIC (C. albicans ATCC90028; [1]) [µg/mL] | MIC (A. fumigatus ATCC204305; [2]) [µg/mL] | MIC (A. flavus ATCC204304; [3]) [µg/mL] | other results
1 | C[C@@H]1[C@H](O)[C@@H](C)/C=C/C=C/C=C/C=C/C=C/C=C/C=C/[C@H](O[C@@H]2O[C@H](C)[C@@H](O)[C@H](N)[C@@H]2O)C[C@@H]2O[C@](O)(C[C@@H](O)C[C@@H](O)[C@H](O)CC[C@@H](O)C[C@@H](O)CC(=O)O[C@H]1C)C[C@H](O)[C@H]2NC(=O)N1CC(O)C1 [I-166] | 0.25 (≈ 0.251 µM) | 1 (≈ 1.01 µM) | 0.5 (≈ 0.503 µM) | 
2 | C[C@@H]1[C@H](O)[C@@H](C)/C=C/C=C/C=C/C=C/C=C/C=C/C=C/[C@H](O[C@@H]2O[C@H](C)[C@@H](O)[C@H](N)[C@@H]2O)C[C@@H]2O[C@](O)(C[C@@H](O)C[C@@H](O)[C@H](O)CC[C@@H](O)C[C@@H](O)CC(=O)O[C@H]1C)C[C@H](O)[C@H]2NC(=O)NC(CN)CO (stereo partly drawn) [I-169] | 0.25 (≈ 0.247 µM) | 1 (≈ 0.989 µM) | 1 (≈ 0.989 µM) | 
3 | C[C@@H]1[C@H](O)[C@@H](C)/C=C/C=C/C=C/C=C/C=C/C=C/C=C/[C@H](O[C@@H]2O[C@H](C)[C@@H](O)[C@H](N)[C@@H]2O)C[C@@H]2O[C@](O)(C[C@@H](O)C[C@@H](O)[C@H](O)CC[C@@H](O)C[C@@H](O)CC(=O)O[C@H]1C)C[C@H](O)[C@H]2NC(=O)N(O)CC(N)=O [I-273] |  |  |  | MIC (C. albicans ATCC90028; Candida albicans, ATCC90028): 0.25 µg/mL (≈ 0.247 µM); MIC (A. fumigatus ATCC204305; Aspergillus fumigatus, ATCC204305): 0.5 µg/mL (≈ 0.494 µM); MIC (A. flavus ATCC204304; Aspergillus flavus, ATCC204304): 0.5 µg/mL (≈ 0.494 µM)
4 | C[C@@H]1[C@H](O)[C@@H](C)/C=C/C=C/C=C/C=C/C=C/C=C/C=C/[C@H](O[C@@H]2O[C@H](C)[C@@H](O)[C@H](N)[C@@H]2O)C[C@@H]2O[C@](O)(C[C@@H](O)C[C@@H](O)[C@H](O)CC[C@@H](O)C[C@@H](O)CC(=O)O[C@H]1C)C[C@H](O)[C@H]2NC(=O)NCC1CN(C)C1 [I-159] | 0.25 (≈ 0.245 µM) | 1 (≈ 0.979 µM) | 0.5 (≈ 0.49 µM) | 
5 | C[C@@H]1[C@H](O)[C@@H](C)/C=C/C=C/C=C/C=C/C=C/C=C/C=C/[C@H](O[C@@H]2O[C@H](C)[C@@H](O)[C@H](NC(=N)N)[C@@H]2O)C[C@@H]2O[C@](O)(C[C@@H](O)C[C@@H](O)[C@H](O)CC[C@@H](O)C[C@@H](O)CC(=O)O[C@H]1C)C[C@H](O)[C@H]2NC(=O)NCCC(N)=O [I-343] |  |  |  | MIC (C. albicans ATCC90028; [4]): 0.25 µg/mL (≈ 0.238 µM); MIC (A. fumigatus ATCC204305; [5]): 1 µg/mL (≈ 0.951 µM); MIC (A. flavus ATCC204304; [6]): 0.5 µg/mL (≈ 0.476 µM)
6 | C[C@@H]1[C@H](O)[C@@H](C)/C=C/C=C/C=C/C=C/C=C/C=C/C=C/[C@H](O[C@@H]2O[C@H](C)[C@@H](O)[C@H](N)[C@@H]2O)C[C@@H]2O[C@](O)(C[C@@H](O)C[C@@H](O)[C@H](O)CC[C@@H](O)C[C@@H](O)CC(=O)O[C@H]1C)C[C@H](O)[C@H]2NC(=O)N(O)CC(=O)O [I-276] | 0.5 (≈ 0.494 µM) | 0.5 (≈ 0.494 µM) | 0.5 (≈ 0.494 µM) | 
7 | C[C@@H]1[C@H](O)[C@@H](C)/C=C/C=C/C=C/C=C/C=C/C=C/C=C/[C@H](O[C@@H]2O[C@H](C)[C@@H](O)[C@H](NC(=O)CN(C)C)[C@@H]2O)C[C@@H]2O[C@](O)(C[C@@H](O)C[C@@H](O)[C@H](O)CC[C@@H](O)C[C@@H](O)CC(=O)O[C@H]1C)C[C@H](O)[C@H]2NC(=O)NCCC(N)=O [I-344] |  |  |  | MIC (C. albicans ATCC90028; [4]): 0.5 µg/mL (≈ 0.457 µM); MIC (A. fumigatus ATCC204305; [5]): 1 µg/mL (≈ 0.914 µM); MIC (A. flavus ATCC204304; [6]): 0.5 µg/mL (≈ 0.457 µM)
8 | C[C@@H]1[C@H](O)[C@@H](C)/C=C/C=C/C=C/C=C/C=C/C=C/C=C/[C@H](O[C@@H]2O[C@H](C)[C@@H](O)[C@H](N)[C@@H]2O)C[C@@H]2O[C@](O)(C[C@@H](O)C[C@@H](O)[C@H](O)CC[C@@H](O)C[C@@H](O)CC(=O)O[C@H]1C)C[C@H](O)[C@H]2NC(=O)NNC[C@H](O)CO [I-227] | 0.5 (≈ 0.487 µM) | 1 (≈ 0.974 µM) | 0.5 (≈ 0.487 µM) | 
9 | C[C@@H]1[C@H](O)[C@@H](C)/C=C/C=C/C=C/C=C/C=C/C=C/C=C/[C@H](O[C@@H]2O[C@H](C)[C@@H](O)[C@H](N)[C@@H]2O)C[C@@H]2O[C@](O)(C[C@@H](O)C[C@@H](O)[C@H](O)CC[C@@H](O)C[C@@H](O)CC(=O)O[C@H]1C)C[C@H](O)[C@H]2NC(=O)N(O)CCO [I-274] | 0.5 (≈ 0.501 µM) | 0.5 (≈ 0.501 µM) | 0.5 (≈ 0.501 µM) | 

From patent publication US10696707B2, “Polyene macrolide derivative” (Shionogi & Co., Ltd., priority 2014, dated 2020)
